Entries after “also recorded” stand apart in the source; their conditions may differ.
How the values were obtained:
Type in all cases: biochemical, Bacillus sectorramus
α-1,6-glucosidase [1] = assay: Influence of inhibitor on enzyme activity
Method: (§1) 8. Assay of activity: 4 ml of 0.5% pullulan solution (pH 4.5) was added to 1 ml of an enzyme solution, and the reaction was carried out for 30 minutes at 40° C. Then, 2 ml of Somogyi solution was added, the mixture was heated for 20 minutes and then cooled. After cooling, 1 ml of ammonium arsenomolybdenate was added, and water was added to a total volume of 25 ml. Absorbance of this solution was measured at 500 nm, with a layer thickness of 1 cm. Under these conditions, the activity was defined as one unit when reducing sugar corresponding to 1 μmol of glucose was produced per minute.

α-1,6-glucosidase [2] = assay: Influence of metal salt on enzyme activity; settings: for Remaining activity (%): 50 mM acetic acid buffer (pH 4.5), 30 minutes at 40° C., final concentration of metal salt 5 mM; for Influence of metal salts: metal salt 5 mM
Method: as §1
10. […] Influences of various metal salts are shown in Table 5, indicating the remaining activity after treatment in a 50 mM acetic acid buffer (pH 4.5) for 30 minutes at 40° C., with a final concentration of metal salt of 5 mM.

α-1,6-glucosidase [3] = assay: Relative activity to polysaccharides (substrate specificity); settings: activity of the enzyme on the polysaccharide, pullulan = 100
Method: 3. Relative activity to polysaccharides: Table 3 compares the relative activity of the enzyme on pullulan to relative activity on soluble maize amylopectin, soluble starch, oyster glycogen, hare glycogen, maize amylopectin, and potato amylopectin.
as §1

α-1,6-glucosidase [4] = assay: Km value and Vmax to substrates; settings: substrate of the purified enzyme
Text: After the cultivation period, the cells were removed from the culture broth, and the supernatant fraction thus obtained was concentrated to obtain a preparation of crude pullulanase. This preparation was fractionated with ammonium sulfate, then subjected to affinity chromatography with γ-cyclodextrin-cephalose 6B (produced by coupling γ-cyclodextrin to activated Sepharose 6B (trade mark, Pharmacia Fine Chemical Co.)) and purified to a single band by electrophoresis utilizing SDS-polyacrylamide gel. The following explains the enzymochemical properties of the α-1,6-glucosidase thus purified.
2. Km value and Vmax to substrates: The Km value (mg/ml) and Vmax value (μmol/min/mg protein) of the enzyme to pullulan, potato amylopectin, and corn amylopectin are as shown in Table 2:
as §1

[5] = 50 mM acetic acid buffer (pH 4.5), 30 minutes at 40° C., final concentration of inhibitor 1 mM

CCN1C(=O)C=CC1=O [N--ethylmaleimide]
Remaining activity (%) (α-1,6-glucosidase [1]; [5]): 65.5%

O.O.O.O.O.O.[Cl][Ni][Cl] [NiCl2.6H2 O]
Remaining activity (%) (α-1,6-glucosidase [2]): 102.7% | Influence of metal salts (α-1,6-glucosidase [2]): negligibly affected

O.O.O.O.[Cl][Mn][Cl] [MnCl2.4H2 O]
Remaining activity (%) (α-1,6-glucosidase [2]): 85.9% | Influence of metal salts (α-1,6-glucosidase [2]): negligibly affected

O.O.[Cl][Sn][Cl] [SnCl2.2H2 O]
Remaining activity (%) (α-1,6-glucosidase [2]): 82.1%

O=C(O)c1cc[c]([Hg][Cl])cc1 [PCMB, p-chloromercuribenzoic acid]
Remaining activity (%) (α-1,6-glucosidase [1]; [5]): 27.1%

[Ca+2].[Cl-].[Cl-] [CaCl2]
Remaining activity (%) (α-1,6-glucosidase [2]): 79.1%

O.O.O.O.O.O.[Cl-].[Cl-].[Mg+2] [MgCl2.6H2 O]
Remaining activity (%) (α-1,6-glucosidase [2]): 91.3%

CCCCCCCCCCCCOS(=O)(=O)[O-].[Na+] [SDS, sodium dodecylsulfate]
Remaining activity (%) (α-1,6-glucosidase [1]; [5]): 1.5%

[Cl][Fe][Cl] [FeCl2.nH2 O]
Remaining activity (%) (α-1,6-glucosidase [2]): 82.1%

[Cl][Hg][Cl] [HgCl2]
Remaining activity (%) (α-1,6-glucosidase [2]): 0% | Influence of metal salts (α-1,6-glucosidase [2]; listed as Hg^2+): deactivated; also recorded: losses activity

[Cl][Fe]([Cl])[Cl] [FeCl3]
Remaining activity (%) (α-1,6-glucosidase [2]): 57.8% | Influence of metal salts (α-1,6-glucosidase [2]): inhibited

[Cl-].[Cl-].[Sr+2] [SrCl2]
Remaining activity (%) (α-1,6-glucosidase [2]): 74.5%

Soluble starch
Relative activity (%) (α-1,6-glucosidase [3]): 6.7%

[Cl-].[Cl-].[Co+2] [CoCl2]
Remaining activity (%) (α-1,6-glucosidase [2]): 87.7%

O.O.O.O.O.[Cd+2].[Cd+2].[Cl-].[Cl-].[Cl-].[Cl-] [CdCl2.21/2H2 O]
Remaining activity (%) (α-1,6-glucosidase [2]): 92.4% | Influence of metal salts (α-1,6-glucosidase [2]): negligibly affected

O=C(O)CI [Monoiodo-acetic acid]
Remaining activity (%) (α-1,6-glucosidase [1]; pH 4.5): 66.5%

Cl.Cl.[Ag] [AgCl2]
Remaining activity (%) (α-1,6-glucosidase [2]): 2.7% | Influence of metal salts (α-1,6-glucosidase [2]; listed as Ag^2+): deactivated; also recorded: losses activity

[Cl-].[Cl-].[Zn+2] [ZnCl2]
Remaining activity (%) (α-1,6-glucosidase [2]): 97.3% | Influence of metal salts (α-1,6-glucosidase [2]): negligibly affected

[Ba+2].[Cl-].[Cl-] [BaCl2]
Remaining activity (%) (α-1,6-glucosidase [2]): 98.9% | Influence of metal salts (α-1,6-glucosidase [2]): negligibly affected

c1cnc2c(c1)ccc1cccnc12 [o-phenanthroline]
Remaining activity (%) (α-1,6-glucosidase [1]; [5]): 109.0% | Influence of inhibitor (α-1,6-glucosidase [1]; inhibitor 1 mM): not and not inhibited

Pullulan
Km (α-1,6-glucosidase [4]): 0.14 mg/mL | Vmax (α-1,6-glucosidase [4]): 70.0 μmol/min/mg protein | Relative activity (%) (α-1,6-glucosidase [3]): 100%

O=C(O)CN(CCN(CC(=O)O)CC(=O)O)CC(=O)O [EDTA]
Remaining activity (%) (α-1,6-glucosidase [1]; pH 4.5): 93.1%

O.O.[Cl][Cu][Cl] [CuCl2.2H2 O]
Remaining activity (%) (α-1,6-glucosidase [2]): 73.4%

Reference: patent publication US4902622A, “Novel α-1,6-glucosidase and process for producing the same” (Amano Pharmaceutical Co., Ltd., priority 1986, dated 1990)
